{"source": "patent US4518611A", "about": "“2-Furylbutyrolactone modulation of the immune system in mammals” (priority 1983, dated 1985)", "key": {"KLH antibody response": {"system": "KLH antibody response", "conditions": "for increase of antibody titer over control (fold): 200 and 400 mg/kg", "description": "The effect of the compounds of this invention on the immune response to specific antigens involves immunization of mice with specific antigens such as bovine serum albumin (BSA) or keyhole limpet hemocyanin (KLH). Following immunization, it is possible to assess the cell-mediated or humoral (antibody) immune response to these antigens by various methods:\n(2) Antibody response to soluble antigens such as BSA or KLH can be quantitated using a micro-ELISA solid phase heterogeneous immunoassay. The assay can be designed to quantitate class specific immunoglobulins (i.e., IgG or IgM).\nMice of the C57BL/6 strain are given i.p. injections of either 50, 100, 200 or 400 mg/kg of Cpd. 1 or buffer for ten days (days 1-10). An antigen, keyhole limpet hemocyanin (KLH), is administered intraperitoneally with Freund's Complete Adjuvant (FCA) on days 1, 7, and 13. Blood samples are taken for assay of the antibody response on days 0, 5, 12, and 17. Spleens are removed, lymphocytes isolated and a lymphocyte stimulation assay with PHA, Con-A or KLH antigen as the mitogens is performed on day 17 of the experiment."}, "human lymphocytes": {"system": "human lymphocytes", "assay": "In vitro lymphocyte stimulation assay, human lymphocytes", "type": "cell-based", "experimental": "The purpose of this assay is to challenge lymphocytes in microcultures with one or more polyclonal mitogens at concentrations that will induce mitogenesis within 72 hours of stimulation.\nIn the mouse model, spleens are removed from different strains of mice and the spleen cells are teased free and suspended in RPMI-1640 tissue culture medium at a concentration of usually […]. These cells are dispensed at a concentration of 5.0×10^5 cells per microculture well in a 96 well flat bottom 96 well tissue culture plate. All testing of the compounds of this invention or mitogens are done in replicates of 10. The cells are then treated with PHA, Con-A, specific antigens, or buffer only. If in vitro testing is done, varying concentrations of the compounds of this invention or buffer only are added to the cells as well. After treatment with the mitogens and/or compounds of this invention, the cells are incubated for 72 hours. The response of these cells to mitogens and/or the compounds of this invention is assessed using ^14 C-thymidine labeling on the fourth day at a concentration of 0.01 μCi/well. The labeled cells are harvested using a lymphocyte harvestor and placed onto fibrous paper discs. A scintillation cocktail is added to vials containing the discs and the results are obtained using a LKB-liquid scintillation counter (Model 1216/Rackbeta II). The data is expressed as a ratio of the cpm of the mitogen stimulated group to the control (nonmitogen) treated group=lymphocyte stimulation index (LSI).\nThe lymphocyte stimulation assay may be performed directly on spleen cells obtained from various strains of mice not treated with the compounds of this invention or on lymphocytes obtained from human […]. […] Alternatively, the mice may be treated in vivo with the compounds of this invention by intraperitoneal multi-dose schedules, followed by sacrifice and harvesting spleen lymphocytes. These cells are then tested for their response to polyclonal mitogens or specific antigens used to immunize the mice. In this system however, no additional compound is added to the in vitro lymphocyte stimulation assay system.\nLymphocytes isolated from 5 human volunteers are treated in vitro with PHA and Con-A and either 0.1, 1, 10, 50, or 100 μg/well of Cpd. 1, 0.1, 1, 10, 50, or 100 μg/well of AA, or buffer."}, "FLC-745 target cells": {"system": "FLC-745 target cells", "assay": "MLTC assay of cytotoxic lymphocyte (CTL) activity, FLC-745 target cells", "type": "cell-based, mouse, DBA/2", "description": "A mixed lymphocyte tumor culture (MLTC) immunoassay, used to determine the cytotoxic lymphocyte (CTL) activity employs lymphocytes from either immunized (sensitized) mice or DBA/2 tumor dormant state animals in various stages of the tumor dormant state (TDS). The assay employs L5178Y target cells labeled with ^51 Chromium and effector cells (sensitized lymphocytes) from the above-mentioned sources. Effector-target cell ratios will vary with different experimental conditions and may or may not include irradiated stimulator L5178Y cells. Results are expressed as % lysis of target cells based on ratio of cpm of test group over cpm of total release (maximum) both of which are corrected for spontaneous release of ^51 Cr. The assay can be performed as an 8 or 18 hour release assay.\nAn MLTC assay is performed to assess the CTL activity and tumor target cell specificity of Cpd. 1. Tumor dormant spleen cells and normal spleen cells of DBA/2 mice are used as effector cells. Irradiated L5178Y cells are used as stimulator cells. ^51 Cr-labeled L5178Y cells and FLC-745 cells are used as target cells. The effector/target ratios studied are 100:1, 30:1 and 10:1."}}, "note": "“Also recorded” adds a separate entry of the source. Where two headings read alike, the source gives them in different places."}
{"smiles": "Cc1ccc(C2(O)C(=O)OC3C(O)COC32O)o1.Cc1ccc(C2(O)C(=O)OC3C(O)COC32O)o1.O=C1CCC(=O)O1", "note": "(centres unmarked) [Cpd. 1, 2-furylbutyrolactone:succinic anhydride]", "values": [{"measurement": "Micro-ELISA Titer", "setting": "KLH antibody response; 50 mg/kg i.p., Day 5", "value": "N/R"}, {"measurement": "Micro-ELISA Titer", "setting": "KLH antibody response; 50 mg/kg i.p., Prebleed", "value": "N/R"}, {"measurement": "Micro-ELISA Titer", "setting": "KLH antibody response; 100 mg/kg i.p., Day 5", "value": "N/R"}, {"measurement": "Micro-ELISA Titer", "setting": "KLH antibody response; 100 mg/kg i.p., Prebleed", "value": "N/R"}, {"measurement": "Micro-ELISA Titer", "setting": "KLH antibody response; 200 mg/kg i.p., Day 5", "value": "N/R"}, {"measurement": "Micro-ELISA Titer", "setting": "KLH antibody response; 200 mg/kg i.p., Prebleed", "value": "N/R"}, {"measurement": "Micro-ELISA Titer", "setting": "KLH antibody response; 400 mg/kg i.p., Day 5", "value": "N/R"}, {"measurement": "Micro-ELISA Titer", "setting": "KLH antibody response; 400 mg/kg i.p., Prebleed", "value": "N/R"}, {"measurement": "increase of antibody titer over control (fold)", "setting": "KLH antibody response; day 12", "value": "four-fold"}, {"measurement": "increase of antibody titer over control (fold)", "setting": "KLH antibody response; day 17", "value": "eight-fold"}, {"measurement": "Lymphocyte Stimulation Index, Con-A", "setting": "human lymphocytes; 0.1 μg/well", "value": 38.06}, {"measurement": "Lymphocyte Stimulation Index, PHA", "setting": "human lymphocytes; 0.1 μg/well", "value": 56.67}, {"measurement": "Lymphocyte Stimulation Index, Con-A", "setting": "human lymphocytes; 1.0 μg/well", "value": 32.63}, {"measurement": "Lymphocyte Stimulation Index, PHA", "setting": "human lymphocytes; 1.0 μg/well", "value": 48.60}, {"measurement": "Lymphocyte Stimulation Index, Con-A", "setting": "human lymphocytes; 10 μg/well", "value": 23.82}, {"measurement": "Lymphocyte Stimulation Index, PHA", "setting": "human lymphocytes; 10 μg/well", "value": 34.37}, {"measurement": "Lymphocyte Stimulation Index, Con-A", "setting": "human lymphocytes; 50 μg/well", "value": 1.33}, {"measurement": "Lymphocyte Stimulation Index, PHA", "setting": "human lymphocytes; 50 μg/well", "value": 0.40}, {"measurement": "Lymphocyte Stimulation Index, Con-A", "setting": "human lymphocytes; 100 μg/well", "value": 0.44}, {"measurement": "Lymphocyte Stimulation Index, PHA", "setting": "human lymphocytes; 100 μg/well", "value": 0.544}, {"measurement": "effect on lymphocyte response (in words)", "setting": "human lymphocytes; in vitro, PHA and Con-A", "value": "a high dose anti-proliferative effect, at doses of 100 and 50 μg/ml; also recorded: markedly increased lymphocyte response at very low doses of 1 and 0.1 μg/ml"}, {"measurement": "% Lysis", "setting": "FLC-745 target cells; E + D, E/T 10:1, TDS effectors, no stimulators", "value": 0.7, "unit": "%"}, {"measurement": "% Lysis", "setting": "FLC-745 target cells; E + D, E/T 30:1, TDS effectors, no stimulators", "value": 4.6, "unit": "%"}, {"measurement": "% Lysis", "setting": "FLC-745 target cells; E + D, E/T 100:1, TDS effectors, no stimulators", "value": 6.6, "unit": "%"}, {"measurement": "% Lysis", "setting": "FLC-745 target cells; E + S + D, E/T 10:1, TDS effectors + stimulators", "value": 0.5, "unit": "%"}, {"measurement": "% Lysis", "setting": "FLC-745 target cells; E + S + D, E/T 30:1, TDS effectors + stimulators", "value": 3.6, "unit": "%"}, {"measurement": "enhancement of CTL activity (in words)", "setting": "FLC-745 target cells; FLC-745 target, TDS effectors with stimulator cells", "value": "This effect is not observed in the FLC-745 target control system"}, {"measurement": "% Lysis", "setting": "FLC-745 target cells; N + D, E/T 10:1, normal spleen cells, no stimulators", "value": -3.5, "unit": "%"}, {"measurement": "% Lysis", "setting": "FLC-745 target cells; N + D, E/T 30:1, normal spleen cells, no stimulators", "value": 0.9, "unit": "%"}, {"measurement": "% Lysis", "setting": "FLC-745 target cells; N + S + D, E/T 10:1, normal spleen cells + stimulators", "value": -1.1, "unit": "%"}, {"measurement": "% Lysis", "setting": "FLC-745 target cells; N + S + D, E/T 30:1, normal spleen cells + stimulators", "value": -0.8, "unit": "%"}, {"measurement": "% Lysis", "setting": "FLC-745 target cells; N + S + D, E/T 100:1, normal spleen cells + stimulators", "value": 5.8, "unit": "%"}]}
